According to patent US20230295157A1, “3-(1H-IMIDAZOL-2-YL)-2,3,8,8A-TETRAHYDROINDOLIZIN-5(1H)-ONE DERIVATIVES USEFUL AS FACTOR XIA INHIBITORS” (JANSSEN PHARMACEUTICA NV, priority 2020, published 2023):

Key:
Factor XIa = Factor XIa (Homo sapiens (Human), UniProt P03951); assay: Factor XIa inhibition assay (FLINT) utilizing a fluorophore-quencher pair peptide substrate; format: biochemical; conditions: 30 min preincubation, kinetic reads over 30 min, 5Fam-KLTRAETV-K5Tamra substrate 15 μM; read-out: FXIa Kin Inh IC50
Summary of the method: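 FXIa ([…]) preincubated 30 min with compound (11-point 3-fold dilution, top 100 nM, 2% DMSO), then 15 μM quenched FXI Arg146-based peptide added; Tris pH 7.5, CaCl2, BSA, CHAPS. Fluorescence 485/520 nm read kinetically every 5 min over 30 min at RT; IC50 by 4-parameter fit.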

human plasma kallikrein = human plasma kallikrein (Homo sapiens (Human), UniProt P03952); assay: Kallikrein inhibition assay (FLINT) utilizing a quenched AMC peptide substrate; format: biochemical; conditions: 30 min preincubation, kinetic reads over 30 min, Z-Gly-Pro-Arg-AMC substrate 50 μM; read-out: Kallikrein Kin Inh IC50
Summary of the method: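 Enzyme (2 nM final) pre-incubated 30 min at room temperature with compound (11-point, 3-fold, top 1 μM, 2% DMSO), then 50 μM Z-Gly-Pro-Arg-AMC added in Tris pH 7.5 buffer. Kinetic fluorescence 340/440 nm every 5 min over 30 min; IC50 from 4-parameter logistic fit.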

Chain of Factor XIa (P03951 388-625): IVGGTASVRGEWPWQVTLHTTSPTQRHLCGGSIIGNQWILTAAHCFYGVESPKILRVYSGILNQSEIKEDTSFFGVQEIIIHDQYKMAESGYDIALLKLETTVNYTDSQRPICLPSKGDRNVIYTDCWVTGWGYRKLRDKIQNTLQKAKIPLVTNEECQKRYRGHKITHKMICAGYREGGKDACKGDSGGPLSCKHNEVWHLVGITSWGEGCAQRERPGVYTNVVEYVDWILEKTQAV
Chain of Factor XIa (P03951 19-387 partner): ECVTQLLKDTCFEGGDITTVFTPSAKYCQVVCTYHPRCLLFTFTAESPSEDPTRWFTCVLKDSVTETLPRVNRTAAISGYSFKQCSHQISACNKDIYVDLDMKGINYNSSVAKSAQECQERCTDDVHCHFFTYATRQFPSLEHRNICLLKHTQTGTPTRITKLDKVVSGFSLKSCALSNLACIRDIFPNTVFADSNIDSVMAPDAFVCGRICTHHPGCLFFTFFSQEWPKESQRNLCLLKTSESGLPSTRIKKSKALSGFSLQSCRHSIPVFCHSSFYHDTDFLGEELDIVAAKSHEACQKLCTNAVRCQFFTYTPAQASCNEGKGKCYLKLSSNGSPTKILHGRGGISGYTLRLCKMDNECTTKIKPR
Chain of human plasma kallikrein (P03952 391-638): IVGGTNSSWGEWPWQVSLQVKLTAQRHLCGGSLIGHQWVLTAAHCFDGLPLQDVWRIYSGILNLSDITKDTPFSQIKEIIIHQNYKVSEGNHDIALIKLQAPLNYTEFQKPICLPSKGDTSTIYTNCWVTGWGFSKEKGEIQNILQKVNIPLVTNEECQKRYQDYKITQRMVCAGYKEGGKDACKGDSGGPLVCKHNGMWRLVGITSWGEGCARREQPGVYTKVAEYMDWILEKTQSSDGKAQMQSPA
Chain of human plasma kallikrein (P03952 20-390 partner): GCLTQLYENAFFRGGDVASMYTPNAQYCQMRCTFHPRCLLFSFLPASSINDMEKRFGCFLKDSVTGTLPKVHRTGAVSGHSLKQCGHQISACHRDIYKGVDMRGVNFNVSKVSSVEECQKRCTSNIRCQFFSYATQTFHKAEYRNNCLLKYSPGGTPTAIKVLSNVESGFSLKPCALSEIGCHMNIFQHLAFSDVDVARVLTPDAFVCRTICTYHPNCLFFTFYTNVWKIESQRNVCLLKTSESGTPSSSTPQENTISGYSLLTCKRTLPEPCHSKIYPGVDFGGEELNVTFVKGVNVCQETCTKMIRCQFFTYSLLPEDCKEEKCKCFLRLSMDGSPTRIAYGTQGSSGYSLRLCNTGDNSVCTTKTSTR

Row | IC50 (Factor XIa) [nM] | IC50 (human plasma kallikrein) [nM] | SMILES
1 | 1.6 | 53.1 | CONC(=O)c1nccc(-c2cnc([C@@H]3CC[C@@H]4CC(c5c(-n6cnnn6)ccc(Cl)c5F)=CC(=O)N43)[nH]2)c1F [Example 103, 4-[2-[(3S,8aR)-7-[3-Chloro-2-fluoro-6-(tetrazol-1-yl)phenyl]-5-oxo-2,3,8,8a-tetrahydro-1H-indolizin-3-yl]-1H-imidazol-5-yl]-3-fluoro-N-methoxy-pyridine-2-carboxamide]
2 | 0.6 | 12.9 | O=C1C=C(c2c(-n3cnnn3)ccc(Cl)c2F)C[C@H]2CC[C@@H](c3ncc(-c4c[nH]nc4C(F)(F)F)[nH]3)N12 (single isomer, unassigned) [Example 240, (3*S,8a*R)-7-(3-Chloro-2-fluoro-6-(1H-tetrazol-1-yl)phenyl)-3-(5-(3-(trifluoromethyl)-1H-pyrazol-4-yl)-1H-imidazol-2-yl)-2,3,8,8a-tetrahydroindolizin-5(1H)-one]
3 | 12.9 | 17.5 | O=C1C=C(c2c(-n3cnnn3)ccc(Cl)c2F)C[C@@H]2CC[C@@H](c3ncc(-c4ccnc(C(F)(F)F)c4)[nH]3)N12 [Example 353, (3S,8aS)-7-(3-Chloro-2-fluoro-6-(1H-tetrazol-1-yl)phenyl)-3-(5-(2-(trifluoromethyl)pyridin-4-yl)-1H-imidazol-2-yl)-2,3,8,8a-tetrahydroindolizin-5(1H)-one]
4 | 77 | 46.2 | CC(C)Oc1ccccc1-c1cnc([C@@H]2CCC3CC(c4c(-n5cnnn5)ccc(Cl)c4F)=CC(=O)N32)[nH]1 (stereo partly drawn) [Example 294]
5 | 0.7 | 1 | O=C1C=C(c2c(-n3cc(C(F)(F)F)nn3)ccc(Cl)c2F)C[C@H]2CC[C@@H](c3ncc(-c4ccc5[nH]c(=O)ccc5c4)[nH]3)N12 (single isomer, unassigned) [Example 152, 6-[2-[(3S,8a*R)-7-[3-chloro-2-fluoro-6-[4-(trifluoromethyl)triazol-1-yl]phenyl]-5-oxo-2,3,8,8a-tetrahydro-1H-indolizin-3-yl]-1H-imidazol-5-yl]-1H-quinolin-2-one]
6 | 35.2 | 59.2 | O=C1C=C(c2cc(Cl)ccc2-n2cnnn2)C(F)(F)C2CC[C@@H](c3ncc(-c4ccnc(CO)c4F)[nH]3)N12 (stereo partly drawn) [Example 56, (3S)-7-(5-chloro-2-(1H-tetrazol-1-yl)phenyl)-8,8-difluoro-3-(5-(3-fluoro-2-(hydroxymethyl)pyridin-4-yl)-1H-imidazol-2-yl)-2,3,8,8a-tetrahydroindolizin-5(1H)-one]
7 | 3.1 | 21.6 | COCc1nccc(-c2c[nH]c([C@@H]3CCC4CC(c5c(-n6cnnn6)ccc(Cl)c5F)=CC(=O)N43)n2)c1F (stereo partly drawn) [Example 177, (3S)-7-(3-chloro-2-fluoro-6-(1H-tetrazol-1-yl)phenyl)-3-(4-(3-fluoro-2-(methoxymethyl)pyridin-4-yl)-1H-imidazol-2-yl)-2,3,8,8a-tetrahydroindolizin-5(1H)-one]
8 | 0.4 | 1 | CNc1n[nH]c2cc(-c3cnc([C@@H]4CC[C@H]5CC(c6c(-n7cnnn7)ccc(Cl)c6F)=CC(=O)N54)[nH]3)ccc12 [Example 265, (3S,8aS)-7-[3-Chloro-2-fluoro-6-(tetrazol-1-yl)phenyl]-3-[5-[3-(methylamino)-1H-indazol-6-yl]-1H-imidazol-2-yl]-2,3,8,8a-tetrahydro-1H-indolizin-5-one]
9 | 3.5 | 12.7 | O=C1C=C(c2c(-n3cnnn3)ccc(Cl)c2F)C[C@H]2CC[C@@H](c3ncc(-c4ccnc(C5COC5)c4F)[nH]3)N12 [Example 130, (3S,8aR)-7-(3-chloro-2-fluoro-6-(1H-tetrazol-1-yl)phenyl)-3-(5-(3-fluoro-2-(oxetan-3-yl)pyridin-4-yl)-1H-imidazol-2-yl)-2,3,8,8a-tetrahydroindolizin-5(1H)-one]
